Test results as given in patent publication US10487068B2, “Pyridazine derivatives as RORc modulators” (Genentech, Inc., priority 2015, dated 2019).

The molecules below were run against T1, RORc ligand binding domain (Homo sapiens, UniProt P51449) (assay: In Vitro RORc Ligand Binding Assay). Conditions: RORc IC50, radioligand 25-[3H]hydroxycholesterol 6 nM; 0.6 ug/mL RORc receptor; 3 h at 25° C.
T1 sequence (P51449 269-508 limits assumed): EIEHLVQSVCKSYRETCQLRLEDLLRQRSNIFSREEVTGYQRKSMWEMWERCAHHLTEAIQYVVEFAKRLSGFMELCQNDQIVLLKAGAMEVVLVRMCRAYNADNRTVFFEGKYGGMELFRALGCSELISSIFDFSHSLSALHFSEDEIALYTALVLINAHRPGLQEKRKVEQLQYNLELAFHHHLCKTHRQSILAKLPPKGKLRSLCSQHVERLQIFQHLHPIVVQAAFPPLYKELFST

| Compound | IC50 [nM] |
| --- | --- |
| CC1(C)[C@H]2CC[C@]1(c1cnnc(N)n1)c1nnc(-c3c(F)cccc3F)cc12 [Example 127, 5-((5R,8S)-3-(2,6-difluorophenyl)-9,9-dimethyl-5,6,7,8-tetrahydro-5,8-methanocinnolin-8-yl)-1,2,4-triazin-3-amine] | 109 |
| CC(C)(O)c1cncc([C@@]23CC[C@@H](c4cc(-c5c(F)cccc5F)nnc42)C3(C)C)n1 [Example 128, 2-(6-((5R,8S)-3-(2,6-difluorophenyl)-9,9-dimethyl-5,6,7,8-tetrahydro-5,8-methanocinnolin-8-yl)pyraizn-2-yl)propan-2-ol] | 21.5 |
| CC1(C)[C@H]2CC[C@]1(c1cncc(CNC(=O)CO)n1)c1nnc(-c3c(F)cccc3F)cc12 [Example 129, N-((6-((5R,8S)-3-(2,6-difluorophenyl)-9,9-dimethyl-5,6,7,8-tetrahydro-5,8-methanocinnolin-8-yl)pyrazin-2-yl)methyl)-2-hydroxyacetamide] | 56.7 |
| CC1(C)[C@H]2CC[C@]1(c1cccc(C(=O)NC(CO)CO)n1)c1nnc(-c3c(F)cccc3F)cc12 [Example 130, 6-((5R,8S)-3-(2,6-difluorophenyl)-9,9-dimethyl-5,6,7,8-tetrahydro-5,8-methanocinnolin-8-yl)-N-(1,3-dihydroxypropan-2-yl)picolinamide] | 55.3 |
| CC1(C)[C@H]2CC[C@]1(c1cccc(C(=O)NCC3(O)COC3)n1)c1nnc(-c3c(F)cccc3F)cc12 [Example 131, 6-((5R,8S)-3-(2,6-difluorophenyl)-9,9-dimethyl-5,6,7,8-tetrahydro-5,8-methanocinnolin-8-yl)-N-((3-hydroxyoxetan-3-yl)methyl)picolinamide] | 44.4 |
| CC1(C)[C@H]2CC[C@]1(c1ccnc(NCC3(O)COC3)n1)c1nnc(-c3c(F)cccc3F)cc12 [Example 132] | 33.2 |
| CC(=O)NCc1cncc([C@@]23CC[C@@H](c4cc(-c5c(F)cccc5F)nnc42)C3(C)C)n1 [Example 133, N-((6-((5R,8S)-3-(2,6-difluorophenyl)-9,9-dimethyl-5,6,7,8-tetrahydro-5,8-methanocinnolin-8-yl)pyrazin-2-yl)methyl)acetamide] | 59.2 |
| CC1(C)[C@H]2CC[C@]1(c1cncc(CNS(C)(=O)=O)n1)c1nnc(-c3c(F)cccc3F)cc12 [Example 134, N-((6-((5R,8S)-3-(2,6-difluorophenyl)-9,9-dimethyl-5,6,7,8-tetrahydro-5,8-methanocinnolin-8-yl)pyrazin-2-yl)methyl)methanesulfonamide] | 18.8 |
| CC1(C)[C@H]2CC[C@]1(c1cncc(-c3nc(CO)co3)n1)c1nnc(-c3c(F)cccc3F)cc12 [Example 135, (2-(6-((5R,8S)-3-(2,6-difluorophenyl)-9,9-dimethyl-5,6,7,8-tetrahydro-5,8-methanocinnolin-8-yl)pyrazin-2-yl)oxazol-4-yl)methanol] | 23.3 |
| CC(C)(O)CNC(=O)c1nccc([C@@]23CC[C@@H](c4cc(-c5c(F)cccc5F)nnc42)C3(C)C)n1 [Example 136] | 37.1 |
| CC1(C)[C@H]2CC[C@]1(c1cccc(S(=O)(=O)N3CCOCC3)n1)c1nnc(-c3c(F)cccc3F)cc12 [Example 137, 4-((6-((5R,8S)-3-(2,6-difluorophenyl)-9,9-dimethyl-5,6,7,8-tetrahydro-5,8-methanocinnolin-8-yl)pyridin-2-yl)sulfonyl)morpholine] | 14.6 |
| Cc1nnc(-c2nccc([C@@]34CC[C@@H](c5cc(-c6c(F)cccc6F)nnc53)C4(C)C)n2)o1 [Example 138] | 41.9 |
| CC1(C)[C@H]2CC[C@]1(c1cncc(C(=O)NCc3nnc[nH]3)n1)c1nnc(-c3c(F)cccc3F)cc12 [Example 139, N-((4H-1,2,4-triazol-3-yl)methyl)-6-((5R,8S)-3-(2,6-difluorophenyl)-9,9-dimethyl-5,6,7,8-tetrahydro-5,8-methanocinnolin-8-yl)pyrazine-2-carboxamide] | 65.5 |
| CC1(C)[C@H]2CC[C@]1(c1cncc(C(=O)NC3(CO)CC3)n1)c1nnc(-c3c(F)cccc3F)cc12 [Example 140, 6-((5R,8S)-3-(2,6-difluorophenyl)-9,9-dimethyl-5,6,7,8-tetrahydro-5,8-methanocinnolin-8-yl)-N-(1-(hydroxymethyl)cyclopropyl)pyrazine-2-carboxamide] | 44.4 |
| CC1(C)[C@H]2CC[C@]1(c1cncc(C(=O)NCc3n[nH]c(=O)[nH]3)n1)c1nnc(-c3c(F)cccc3F)cc12 [Example 141, 6-((5R,8S)-3-(2,6-difluorophenyl)-9,9-dimethyl-5,6,7,8-tetrahydro-5,8-methanocinnolin-8-yl)-N-((5-oxo-4,5-dihydro-1H-1,2,4-triazol-3-yl)methyl)pyrazine-2-carboxamide] | 113 |
| CC1(C)[C@H]2CC[C@]1(c1cncc(-c3ocnc3CO)n1)c1nnc(-c3c(F)cccc3F)cc12 [Example 142, (5-(6-((5R,8S)-3-(2,6-difluorophenyl)-9,9-dimethyl-5,6,7,8-tetrahydro-5,8-methanocinnolin-8-yl)pyrazin-2-yl)oxazol-4-yl)methanol] | 17.2 |
| CNS(=O)(=O)c1cccc([C@@]23CC[C@@H](c4cc(-c5c(F)cccc5F)nnc42)C3(C)C)n1 [Example 143, 6-((5R,8S)-3-(2,6-difluorophenyl)-9,9-dimethyl-5,6,7,8-tetrahydro-5,8-methanocinnolin-8-yl)-N-methylpyridine-2-sulfonamide] | 5.9 |

| Compound | IC50 [nM] |
| --- | --- |
| CC1(C)[C@H]2CC[C@]1(c1cccc(-c3nnc(CO)o3)n1)c1nnc(-c3c(F)cccc3F)cc12 [Example 144, (5-(6-((5R,8S)-3-(2,6-difluorophenyl)-9,9-dimethyl-5,6,7,8-tetrahydro-5,8-methanocinnolin-8-yl)pyridin-2-yl)-1,3,4-oxadiazol-2-yl)methanol] | 11.6 |
| CC1(C)[C@H]2CC[C@]1(c1cncc(-c3ncnn3CCO)n1)c1nnc(-c3c(F)cccc3F)cc12 [Example 145, 2-(5-(6-((5R,8S)-3-(2,6-difluorophenyl)-9,9-dimethyl-5,6,7,8-tetrahydro-5,8-methanocinnolin-8-yl)pyrazin-2-yl)-1H-1,2,4-triazol-1-yl)ethanol] | 43.5 |
| CC1(C)[C@H]2CC[C@]1(c1cncc(-c3nnn[nH]3)n1)c1nnc(-c3c(F)cccc3F)cc12 [Example 146] | 31.9 |
| CC1(C)[C@H]2CC[C@]1(c1cncc(C(=O)NC3(CO)COC3)n1)c1nnc(-c3c(F)cccc3F)cc12 [Example 147, 6-((5R,8S)-3-(2,6-difluorophenyl)-9,9-dimethyl-5,6,7,8-tetrahydro-5,8-methanocinnolin-8-yl)-N-(3-(hydroxymethyl)oxetan-3-yl)pyrazine-2-carboxamide] | 50.6 |
| CC1(C)[C@H]2CC[C@]1(c1cncc(-c3n[nH]c(=O)o3)n1)c1nnc(-c3c(F)cccc3F)cc12 [Example 148, 5-(6-((5R,8S)-3-(2,6-difluorophenyl)-9,9-dimethyl-5,6,7,8-tetrahydro-5,8-methanocinnolin-8-yl)pyrazin-2-yl)-1,3,4-oxadiazol-2(3H)-one] | 21 |
| Cc1nnc(-c2cccc([C@@]34CC[C@@H](c5cc(-c6c(F)cccc6F)nnc53)C4(C)C)n2)[nH]1 [Example 149] | 24 |
| CC1(C)[C@H]2CC[C@]1(c1cccc(-c3nnc(CO)[nH]3)n1)c1nnc(-c3c(F)cccc3F)cc12 [Example 150, (5-(6-((5R,8S)-3-(2,6-difluorophenyl)-9,9-dimethyl-5,6,7,8-tetrahydro-5,8-methanocinnolin-8-yl)pyridin-2-yl)-4H-1,2,4-triazol-3-yl)methanol] | 22.3 |
| CC1(C)[C@H]2CC[C@]1(c1ccnc(-n3cnnc3)n1)c1nnc(-c3c(F)cccc3F)cc12 [Example 151] | 13.6 |
| CC1(C)[C@H]2CC[C@]1(c1ccnc(N3C[C@H](O)[C@@H](O)C3)n1)c1nnc(-c3c(F)cccc3F)cc12 [Example 152] | 174 |
| CC1(C)[C@H]2CC[C@]1(c1ccnc(NC[C@H](O)CO)n1)c1nnc(-c3c(F)cccc3F)cc12 [Example 153] | 15.7 |
| CC1(C)[C@H]2CC[C@]1(c1ccnc(NC[C@@H](O)CO)n1)c1nnc(-c3c(F)cccc3F)cc12 [Example 154] | 42.1 |
| CC1(C)[C@H]2CC[C@]1(c1ccnc(NCc3n[nH]c(=O)[nH]3)n1)c1nnc(-c3c(F)cccc3F)cc12 [Example 155] | 65.8 |
| CC(C)S(=O)(=O)Nc1cccc([C@@]23CC[C@@H](c4cc(-c5c(F)cccc5F)nnc42)C3(C)C)n1 [Example 156, N-(6-((5R,8S)-3-(2,6-difluorophenyl)-9,9-dimethyl-5,6,7,8-tetrahydro-5,8-methanocinnolin-8-yl)pyridin-2-yl)propane-2-sulfonamide] | 30.6 |
| CC1(C)[C@H]2CC[C@]1(c1cccc(N3CCNC3=O)n1)c1nnc(-c3c(F)cccc3F)cc12 [Example 157, 1-(6-((5R,8S)-3-(2,6-difluorophenyl)-9,9-dimethyl-5,6,7,8-tetrahydro-5,8-methanocinnolin-8-yl)pyridin-2-yl)imidazolidin-2-one] | 5.1 |
| CC1(C)[C@H]2CC[C@]1(c1cccc(N3CCN(CCO)C3=O)n1)c1nnc(-c3c(F)cccc3F)cc12 [Example 158, 1-(6-((5R,8S)-3-(2,6-difluorophenyl)-9,9-dimethyl-5,6,7,8-tetrahydro-5,8-methanocinnolin-8-yl)pyridin-2-yl)-3-(2-hydroxyethyl)imidazolidin-2-one] | 26.1 |
| CC1(C)[C@H]2CC[C@]1(c1cnc(C#N)c(C#N)n1)c1nnc(-c3c(F)cccc3F)cc12 [Example 159, 5-((5R,8S)-3-(2,6-difluorophenyl)-9,9-dimethyl-5,6,7,8-tetrahydro-5,8-methanocinnolin-8-yl)pyrazine-2,3-dicarbonitrile] | 548 |
| COC(=O)c1nccc([C@@]23CC[C@@H](c4cc(-c5c(F)cccc5Cl)nnc42)C3(C)C)n1 [Example 160] | 13.1 |
